In PMC11012289, “The Discovery of New Inhibitors of Insulin-Regulated Aminopeptidase by a High-Throughput Screening of 400,000 Drug-like Compounds” (International Journal of Molecular Sciences, 2024):

Key:
[1] = parameters: method as in ELF screening history; settings: ref ELF screening history, cited from earlier work; for Enzyme Active: number of ELF enzyme screens in which the compound was active; for Targets active: number of ELF screens in which the compound was active; for Enzyme Active %: share of ELF enzyme targets screened; for Targets Active %: share of all ELF targets screened
IRAP [2] = target: T1, IRAP (Homo sapiens, UniProt Q9UIQ6); experiment: Deselection fluorescence IRAP assay with 10 µM zinc; assay type: biochemical; settings: 10 µM ZnSO4 in assay buffer; for IC50: read-out: Fluorescence + Zn pIC50 (converted)
T1 construct: The screen was performed with the soluble truncated IRAP enzyme; made in house
T1 sequence (Q9UIQ6 155-1025 limits assumed): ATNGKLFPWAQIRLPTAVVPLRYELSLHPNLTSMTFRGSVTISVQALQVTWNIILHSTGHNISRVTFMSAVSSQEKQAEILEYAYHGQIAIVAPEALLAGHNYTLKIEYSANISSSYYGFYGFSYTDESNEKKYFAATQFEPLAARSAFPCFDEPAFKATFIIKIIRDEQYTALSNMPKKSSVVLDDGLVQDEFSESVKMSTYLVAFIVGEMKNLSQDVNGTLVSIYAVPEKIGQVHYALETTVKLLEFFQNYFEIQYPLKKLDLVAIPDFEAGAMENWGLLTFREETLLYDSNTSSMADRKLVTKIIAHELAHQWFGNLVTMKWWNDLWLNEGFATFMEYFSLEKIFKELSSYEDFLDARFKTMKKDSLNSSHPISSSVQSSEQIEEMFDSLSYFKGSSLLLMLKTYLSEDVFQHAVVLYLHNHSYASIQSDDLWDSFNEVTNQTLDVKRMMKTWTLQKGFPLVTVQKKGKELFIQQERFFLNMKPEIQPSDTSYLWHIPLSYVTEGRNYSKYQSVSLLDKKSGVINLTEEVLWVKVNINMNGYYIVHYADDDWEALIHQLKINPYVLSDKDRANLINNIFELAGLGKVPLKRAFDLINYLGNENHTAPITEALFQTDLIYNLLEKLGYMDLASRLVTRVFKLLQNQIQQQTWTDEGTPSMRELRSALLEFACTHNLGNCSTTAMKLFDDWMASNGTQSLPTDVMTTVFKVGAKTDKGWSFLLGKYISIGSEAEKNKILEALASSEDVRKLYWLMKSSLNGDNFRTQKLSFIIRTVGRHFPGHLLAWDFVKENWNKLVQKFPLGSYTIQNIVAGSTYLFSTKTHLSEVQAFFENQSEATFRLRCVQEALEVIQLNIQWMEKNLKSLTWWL
Procedure: To prepare the assay buffer (50 mM Tris-HCl pH 7.4, 150 mM NaCl, 0.1 mM PMSF, 0.05% BSA) of the primary and orthogonal assays, 1 M Tris-HCl was prepared by dissolving 60.57 g Trizma-base (Mw 121.14 g/mol) (Sigma 93362-250G) in 500 mL MQ water, and the pH was adjusted to 7.4 using 4 M HCl. The solution was filtered with a 0.45 μm filter and stored at room temperature (RT). Then, 2 M NaCl stock was prepared by dissolving 29.22 g NaCl (Mw 58.44 g/mol) (Sigma S7653-250G) in 250 mL MQ water. The solution was filtered with a 0.45 μm filter and stored at RT. Next, 100 mM Phenylmethanesulfonylfluoride (PMSF) stock was prepared by dissolving 1 g PMSF (Mw 174.19 g/mol) (Sigma 78830-1G) in 57.4 mL isopropanol (Sigma I9516-500ML) and stored at 4 °C. A 10% Bovine Serum Albumin (BSA) stock solution was prepared by dissolving 2 g BSA (Mw 66.5 kDa) (Sigma A7030-50G), which was dissolved in 20 mL MQ water. The solution was filtered with a 0.45 μm filter, aliquoted, and stored at −20 °C. For the deselection assay buffer (50 mM Tris-HCl pH 7.4, 150 mM NaCl, 0.1 mM PMSF, 0.05% BSA, 10 μM ZnSO4), 1 mM ZnSO4 solution was prepared by dissolving 28.8 mg ZnSO4 (Mw 287.56 g/mol) (Sigma Z0251-100G) in 100 mL MQ water. The solution was filtered with a 0.45 μm filter and stored at RT. For the TSA assay buffer (50 mM Tris HCL, 150 mM NaCl, pH 7.4), stocks of 1 M Tris HCL and 2 M NaCl were prepared as described above.

IRAP [3] = target: T1, IRAP; experiment: Thermal shift (TSA) IRAP assay; assay type: binding; settings: screening hits at 30 µM, 1% DMSO
Source text: The Thermal shift assay (TSA) is a biophysical technique measuring protein thermal stability. The assay relies on a fluorescent dye that is quenched in an aqueous environment but fluoresces when de-solvated in non-polar environments, such as the hydrophobic pockets of proteins. The target protein is mixed with the dye and heated gradually until it becomes completely denatured; as it unfolds or melts, the dye binds to newly exposed hydrophobic regions of the protein, resulting in a significant increase in fluorescence emission detected by a PCR system. The melting temperature (Tm) is calculated from the protein melt curve, and changes in Tm (known as ΔTm) are correlated with changes in protein stability and ligand binding. […] For the TSA assay, vehicle (DMSO) or compound was dispensed into MicroAmp Endura optical qPCR plates at the desired volume using an Echo acoustic liquid handler. […] The plates were then centrifuged for 10 s at 1000 rpm and sealed with Clear PCR-compatible plate seals.

IRAP [4] = target: T1, IRAP; experiment: Primary fluorescence IRAP assay (L-Leucine-7-amido-4-methylcoumarin cleavage); assay type: biochemical; settings: for IC50 / Fluorescence pIC50: 37.5 µM L-Leucine-7-amido-4-methylcoumarin, 60 min RT, dose-response 20 µM-27.4 nM; for IC50: read-out: Fluorescence IC50; for LipE: calculated from (pIC50Fluorescence − LogD)
Source text: The primary biochemical assay was developed to measure the enzymatic activity of IRAP.
To ensure biochemically sound, optimal, robust, and affordable assay conditions for large-scale screening, several factors need to be considered. […] For both primary fluorescence and orthogonal absorbance assays, non-binding 1536-well assay plates were used, and 0.05% BSA was included in the assay buffer to minimize the issues associated with protein sticking to plastics. The substrate Km values were determined in two separate experiments using two different batches of IRAP protein. For this, the IRAP progress curve was monitored every 5 min for 2 h using an Envision multimode plate reader (PerkinElmer, Waltham, MA, USA).
First, 10 nL of test compounds (4 mM) or 100% DMSO was dispensed into the 1536-well assay plates using an Echo acoustic liquid handler (Beckman Coulter, Brea, CA, USA). Then, 2 μL of protein working solution (5 × 10^−4 mg/mL) was dispensed to the negative control (min effect) and compound wells (final well concentration 2.5 × 10^−4 mg/mL) using a Certus Flex liquid dispenser (Fritz Gyger AG, Thun, Switzerland) and 2 μL assay buffer to the positive control wells (max effect) using a FLEXdrop (PerkinElmer, Waltham, MA, USA).
Figure S9. Reference compounds in Fluorescence IRAP assay with different end volumes in 1536-well format.
mg/ml) and 2 or 4 µL L -Leucine-7-amido-4-methylcoumarin (f.a.c.
Plates were measured on the Envision every 10 minutes for 140 minutes (data
shown up to 2 hours). %Effect was calculated using no protein as MAX effect (assay buffer was added instead of IRAP).

IRAP [5] = target: T1, IRAP; experiment: Orthogonal absorbance IRAP assay (L-Leucine para-nitroanilide cleavage); assay type: biochemical; settings: 1 mM L-Leucine p-Nitroanilide, 120 min RT; for IC50: read-out: Absorbance pIC50 (converted)
Source text: The primary biochemical assay was developed to measure the enzymatic activity of IRAP. […] To establish an orthogonal assay, an alternative L-Leucine para-nitroanilide substrate was used, which IRAP turns over to L-Leucine and para-nitroaniline and is measurable by absorbance at 405 nm (Supplementary Figure S2B).
To ensure biochemically sound, optimal, robust, and affordable assay conditions for large-scale screening, several factors need to be considered. These include the final concentration of substrates, based on the determined substrate Km value; the assay kinetics and reaction linearity; achieving a minimal, rate limiting protein concentration; identifying optimal buffer additives and concentrations; the choice of assay plate type; the final assay volume per well; the stability of reagents; the magnitude and variance of the signal; and the potency and rank order of reference compounds. For both primary fluorescence and orthogonal absorbance assays, non-binding 1536-well assay plates were used, and 0.05% BSA was included in the assay buffer to minimize the issues associated with protein sticking to plastics. The substrate Km values were determined in two separate experiments using two different batches of IRAP protein. For this, the IRAP progress curve was monitored every 5 min for 2 h using an Envision multimode plate reader (PerkinElmer, Waltham, MA, USA). […] To evaluate if using substrate concentrations close to the determined Km values results in sufficient dynamic range within the linear range of the enzymatic reaction, Z′ and S/B were calculated for multiple time points up to 2.5 h in the presence and absence of reference compounds in both assays. The primary fluorescence assay reached an optimal Z′-value after 1 h when using 37.5 μM substrate (Supplementary Figure S5). For the absorbance, 2 h was required for the enzyme reaction time; however, using ~0.4 mM substrate was associated with increased assay variation and a poor Z′ (Supplementary Figure S6).
The orthogonal assay was performed in a black non-binding 1536-well plate (Corning 3728) and sealed with universal lids (Corning 3098). First, 20 nL of test compounds (4 mM) or 100% DMSO was dispensed into the 1536-well assay plates using an Echo acoustic liquid handler (Beckman Coulter). Then, 4 μL of protein working solution (5 × 10^−4 mg/mL) was dispensed to the negative control (min effect) and compound wells (final well concentration 2.5 × 10^−4 mg/mL) using the Certus Flex liquid dispenser (Fritz Gyger AG) and 4 μL assay buffer to the positive control wells (max effect) using the FLEXdrop (PerkinElmer). Next, 4 μL of 2 mM substrate working solution was dispensed into all wells using the FLEXdrop (final well concentration 1 mM). The assay plates were then centrifuged at 187.5× g for 30 s, incubated in the dark at RT for 120 min, and finally read on an Envision plate reader (PerkinElmer) (absorbance at 405 nm, 10 flashes per second). During the dose–response curve analysis in the orthogonal assay, 80 nL of compound (range 2.00 × 10^−3 M–2.74 × 10^−6 M) or 100% DMSO was dispensed into the assay plates using an Echo acoustic liquid handler (Beckman Coulter) with final well concentration range of 20 μM–27.4 nM compound and 1% DMSO.

IC50 (IRAP [2]) [µM]	ΔTm at 30 µM (IRAP [3]) [°C]	IC50 (IRAP [4]) [µM]	LipE (IRAP [4])	IC50 (IRAP [5]) [µM]	Fluorescence + Zn pIC50 (IRAP [2])	TSA (∆°C), thermal shift of IRAP (IRAP [3]) [°C]	Fluorescence pIC50 (IRAP [4])	Absorbance pIC50 (IRAP [5])	SMILES	Enzyme Active [1]	Targets active [1]	Enzyme Active % [1] [%]	Targets Active % [1] [%]
5.5	4	3.09	3.57	3.02	–	–	–	–	CC(C)CC(C(=O)NO)S(=O)(=O)N1CCN(c2ccc(F)cc2)CC1 (stereo not shown) [QHL24]	2	2	5.4	3.5
1.29	4.61	1.32	3.94	3.55	–	–	–	–	O=C(NO)C(CS(=O)(=O)N1CCC(c2ccc(F)cc2Cl)CC1)C1CCOCC1 (stereo not shown) [QHL8]	4	6	4.3	4.0
–	–	4.79	1.29	–	5.32	2.96	5.32	5.40	NC(=O)CCc1ccc2c(c1)nc(N)n2Cc1ccc(-c2ccccc2)cc1 [QHL42]	6	12	7.3	8.1
–	–	7.76	2.74	–	5.12	0.89	5.11	6.09	CCn1c(=O)n(CC(=O)N(C)CCc2ccc(O)c3[nH]c(=O)sc23)c2ccccc21 [QHL45]	5	11	6.0	7.9
3.47	0	3.16	2.30	> 20	–	–	–	–	CC(C)n1cc(C(=O)N2CCc3n[nH]c(-c4cccc(F)c4)c3CC2)cn1 [QHL25]	2	2	4.8	2.6
–	–	3.98	1.15	–	5.34	0	5.40	4.85	COc1cc(CN2C(Cc3ccc(S(C)(=O)=O)cc3)CCC2c2cccnc2)cc(OC)c1 (stereo not shown) [QHL35]	6	8	6.8	5.5

The remaining lines, values behind:

SMILES	IC50 (IRAP [2]) [µM]	ΔTm at 30 µM (IRAP [3]) [°C]	IC50 (IRAP [4]) [µM]	LipE (IRAP [4])	IC50 (IRAP [5]) [µM]	Fluorescence + Zn pIC50 (IRAP [2])	TSA (∆°C), thermal shift of IRAP (IRAP [3]) [°C]	Fluorescence pIC50 (IRAP [4])	Absorbance pIC50 (IRAP [5])	Enzyme Active [1]	Targets active [1]	Enzyme Active % [1] [%]	Targets Active % [1] [%]
CC(C)[C@@H](CS(=O)(=O)N(C)Cc1sc2ccccc2c1Cl)C(=O)NO [QHL20]	3.16	4.15	2.82	2.71	5.75	–	–	–	–	1	3	1.9	2.9
O=C(Cc1cc(N2CCCCC2)nc(-c2cccc(F)c2)n1)NO [QHL21]	2.82	2.66	2.95	2.57	5.62	–	–	–	–	6	9	6.9	6.3
O=C(NO)C1(CS(=O)(=O)N2CCC(c3ccc(F)cc3Cl)C2)CCC1 (stereo not shown) [QHL5]	1.12	4.29	1.2	3.79	1.95	–	–	–	–	3	4	3.3	2.7
CCCCc1nc2ccn(Cc3cccc(C#N)c3)c(=O)c2n1Cc1cccc(C#N)c1 [QHL41]	–	–	4.68	0.59	–	5.11	0.44	5.33	5.81	6	8	7.6	5.5
NCC[C@H]1CCCCN1C(=O)Cn1nc(-c2ccc(Cl)cc2)c2c1CCCC2 [QHL11]	1.7	1.92	1.66	2.57	3.89	–	–	–	–	4	5	4.2	3.4
